Our source for the EC50 values is patent US8912195B2, “Alkyl amides as HIV attachment inhibitors” (priority 2010, dated 2014).

Read-outs that look alike come from different tables or passages of the source.

This test has as its system single-round infectious reporter virus with HIV-1 LAI envelope. As to the kind of experiment: Single-round infectious HIV-1 LAI luciferase reporter virus infection of MT2 cells. The note with it: Human immunodeficiency virus 1, MT2, 72 h. In kind it is cell-based. From the text:
• Virus production—Human embryonic Kidney cell line, 293T (HEK 293T), was propagated in Dulbecco's Modified Eagle Medium (Invitrogen, Carlsbad, Calif.) containing 10% fetal Bovine serum (FBS, Sigma, St. Louis, Mo.). The human T-cell leukemia cell MT2 (AIDS Research and Reference Reagent Program, Cat. 237) was propagated in RPMI 1640 (Invitrogen, Carlsbad, Calif.) containing 10% fetal bovine serum (FBS, Hyclone, Logan, Utah) • Virus infection—Single-round infectious reporter virus was produced by co-transfecting HEK 293T cells with plasmide expressing the HIV-1 LAI envelope along with a plasmid containing an HIV-1 LAI proviral cDNA with the envelope gene replaced by a firefly luciferase reporter gene (Chen et al, Ref 41). Transfections were performed using lipofectAMINE PLUS reagent as described by the manufacturer (Invitrogen, Carlsbad, Calif.).
• 1. MT2 cells were plated in black, 384 well plates at a cell density of 5×10^3 cells per well in 25 μl RPMI 1640 containing 10% FBS. • 2. Compound (diluted in dimethylsulfoxide and growth medium) was added to cells at 12.5 μl/well, so that the final assay concentration would be ≦50 nM. • 3. 12.5 μl of single-round infectious reporter virus in Dulbecco's Modified Eagle Medium was added to the plated cells and compound at an approximate multiplicity of infection (MOI) of 0.01, resulting in a final volume of 50 μl per well. • 4. Virus-infected cells were incubated at 37 degrees Celsius, in a CO2 incubator, and harvested 72 h after infection. • 5. Viral infection was monitored by measuring luciferase expression in the infected cells using a luciferase reporter gene assay kit (Steady-Glo, Promega, Madison, Wis.) as described by the manufacturer. Luciferase activity was then quantified by measuring luminescence using an EnVision Multilabel Plate Readers (PerkinElmer, Waltham, Mass.). • 6. The percent inhibition for each compound was calculated by quantifying the level of luciferase expression in cells infected in the presence of each compound as a percentage of that observed for cells infected in the absence of compound and subtracting such a determined value from 100. • 7. An EC50 provides a method for comparing the antiviral potency of the compounds of this disclosure. The effective concentration for fifty percent inhibition (EC50) was calculated with the Microsoft Excel Xlfit curve fitting software. For each compound, curves were generated from percent inhibition calculated at 10 different concentrations by using a four paramenter logistic model (model 205). Table 1 is the key for the data in Table 2.
(A reporter such as luciferase makes a cellular process visible.)

[1] abbreviates: read-out: EC50 Group from Table 1.

Usually EC50 stands for the concentration needed to bring the measured effect to its halfway point. On to `O=C(C(=O)N1CCN(C(=O)C2CCCCCC2)CC1)c1c[nH]c2c(-n3ccnn3)ncc(F)c12` [Compound 2005], for which the midpoint of the response, the EC50, lay at 0.36 nM. The concentration for a half-maximal effect (EC50) under setting [1] was less than 500 nM. The corresponding values for `O=C(C(=O)N1CCN(C(=O)C2CCOCC2)CC1)c1c[nH]c2c(-n3ccnn3)ncc(F)c12` [Compound 2014] are 12.5 nM and less than 500 nM. For `COc1cnc(-n2ccnn2)c2[nH]cc(C(=O)C(=O)N3CCN(C(=O)[C@]45C[C@H]6C[C@H](C[C@H](C6)C4)C5)CC3)c12` [Compound 1003], the EC50 under setting [1] is less than 500 nM. Still for that read-out and setting: then `COc1cnc(-n2ccnn2)c2[nH]cc(C(=O)C(=O)N3CCN(C(=O)C4CCCCC4)CC3)c12` [Compound 1002, 1-(4-(cyclohexanecarbonyl)piperazin-1-yl)-2-(4-methoxy-7-(1H-1,2,3-triazol-1-yl)-1H-pyrrolo[2,3-c]pyridin-3-yl)ethane-1,2-dione], with less than 500 nM; and `CC(C)C(=O)N1CCN(C(=O)C(=O)c2c[nH]c3c(-n4ccnn4)ncc(F)c23)CC1` [Compound 2039], with less than 500 nM. The same measure, in the same setting: with `CC(C)CC(=O)N1CCN(C(=O)C(=O)c2c[nH]c3c(-n4ccnn4)ncc(F)c23)CC1` [Compound 1001, 1-(4-fluoro-7-(1H-1,2,3-triazol-1-yl)-1H-pyrrolo[2,3-c]pyridin-3-yl)-2-(4-(3-methylbutanoyl)piperazin-1-yl)ethane-1,2-dione] the figure was less than 500 nM. Take `O=C(C(=O)N1CCN(C(=O)[C@H](O)c2ccccc2)CC1)c1c[nH]c2c(-n3ccnn3)ncc(F)c12` [Compound 2019]: the EC50 stood at 344 nM. For the same compound, the EC50 under setting [1] is less than 500 nM. For the compound `O=C(C(=O)N1CCN(C(=O)[C@@H](O)c2ccccc2)CC1)c1c[nH]c2c(-n3ccnn3)ncc(F)c12` [Compound 2023], the EC50 under setting [1] is less than 500 nM. As for `COc1cnc(-n2cnc(C)n2)c2[nH]cc(C(=O)C(=O)N3CCN(C(=O)CN(C)C)CC3)c12` [Compound 2049], the EC50 under setting [1] is greater than 500 nM.

Take `CCCCCC(=O)N1CCN(C(=O)C(=O)c2c[nH]c3c(-n4ccnn4)ncc(F)c23)CC1` [Compound 2042]: the EC50 under setting [1] is less than 500 nM. Regarding `O=C(C(=O)N1CCN(C(=O)C2CCC(F)(F)CC2)CC1)c1c[nH]c2c(-n3ccnn3)ncc(F)c12` [Compound 2022], the half-maximal effective concentration (EC50) under setting [1] is less than 500 nM. Still for that read-out and setting: then `CN(C)[C@@H](C(=O)N1CCN(C(=O)C(=O)c2c[nH]c3c(-n4ccnn4)ncc(F)c23)CC1)c1ccccc1` [Compound 2036], with greater than 500 nM. For `CN1CCCC(C(=O)N2CCN(C(=O)C(=O)c3c[nH]c4c(-n5ccnn5)ncc(F)c34)CC2)C1` (stereo not drawn) [Compound 2021], the EC50 is 76.9 nM. For the same compound, the EC50 under setting [1] was less than 500 nM. In the case of `CC[C@@]12CC3C[C@@](O)(C1)C[C@](C(=O)N1CCN(C(=O)C(=O)c4c[nH]c5c(-n6ccnn6)ncc(F)c45)CC1)(C3)C2` [Compound 2027], the EC50 under setting [1] is less than 500 nM. `NC1(C(=O)N2CCN(C(=O)C(=O)c3c[nH]c4c(-n5ccnn5)ncc(F)c34)CC2)CCCC1` [Compound 2013] displayed an EC50 of 451 nM. Besides, the EC50 under setting [1] was less than 500 nM. In the case of `CC(C)(C)OC(=O)N1CCC(C(=O)N2CCN(C(=O)C(=O)c3c[nH]c4c(-n5ccnn5)ncc(F)c34)CC2)CC1` [Compound 2035], the EC50 under setting [1] was greater than 500 nM.

As for `C[C@H]1CC[C@H](C(=O)N2CCN(C(=O)C(=O)c3c[nH]c4c(-n5ccnn5)ncc(F)c34)CC2)CC1` [Compound 2012], the EC50 under setting [1] was less than 500 nM. The same measure, in the same setting: with `CC(C)(C)OC(=O)N[C@@H](C(=O)N1CCN(C(=O)C(=O)c2c[nH]c3c(-n4ccnn4)ncc(F)c23)CC1)c1ccccc1` [Compound 2026] the figure was greater than 500 nM; with `CC(C)=C[C@@H]1[C@@H](C(=O)N2CCN(C(=O)C(=O)c3c[nH]c4c(-n5ccnn5)ncc(F)c34)CC2)C1(C)C` [Compound 2011], greater than 500 nM. `O=C(C(=O)N1CCN(C(=O)C2CCCOC2)CC1)c1c[nH]c2c(-n3ccnn3)ncc(F)c12` (stereo not drawn) [Compound 2024]: the EC50 under setting [1] is less than 500 nM.

As for `CN(C)CC(=O)N1CCN(C(=O)C(=O)c2c[nH]c3c(-n4ccnn4)ncc(F)c23)CC1` [Compound 2045], the EC50 under setting [1] is greater than 500 nM. Still for that read-out and setting: with `C[C@]12C[C@]3(C)C[C@](N)(C1)C[C@](C(=O)N1CCN(C(=O)C(=O)c4c[nH]c5c(-n6ccnn6)ncc(F)c45)CC1)(C2)C3` [Compound 2032] the figure was greater than 500 nM.

The compound `CCC(=O)N1CCN(C(=O)C(=O)c2c[nH]c3c(-n4cnc(C)n4)ncc(OC)c23)CC1` [Compound 2050] yielded an EC50 of 10.4 nM. Further, under setting [1], the EC50 is less than 500 nM. For the compound `CCCCCC(=O)N1CCN(C(=O)C(=O)c2c[nH]c3c(-n4cnc(C)n4)ncc(OC)c23)CC1` [Compound 2040], under setting [1], the EC50 is less than 500 nM. In the case of `O=C(C(=O)N1CCN(C(=O)C2CC3CCC2C(O)C3)CC1)c1c[nH]c2c(-n3ccnn3)ncc(F)c12` (stereo not drawn) [Compound 2008], the EC50 was determined as 5.1 nM. Under setting [1], the EC50 was less than 500 nM. For `O=CN1CCCC(C(=O)N2CCN(C(=O)C(=O)c3c[nH]c4c(-n5ccnn5)ncc(F)c34)CC2)C1` (stereo not drawn) [Compound 2028], the EC50 worked out at 25.5 nM. For the same compound, under setting [1], the EC50 is less than 500 nM. As to `COCC(=O)N1CCN(C(=O)C(=O)c2c[nH]c3c(-n4cnc(C)n4)ncc(OC)c23)CC1` [Compound 2048], under setting [1], the EC50 is less than 500 nM.

As to `CC(C)(C)C1CCC(C(=O)N2CCN(C(=O)C(=O)c3c[nH]c4c(-n5ccnn5)ncc(F)c34)CC2)CC1` (stereo not drawn) [Compound 2009], the EC50 under setting [1] was greater than 500 nM. On the same count and under the same terms, with `N[C@H]1CCCC[C@@H]1C(=O)N1CCN(C(=O)C(=O)c2c[nH]c3c(-n4ccnn4)ncc(F)c23)CC1` [Compound 2006] the figure was greater than 500 nM. `O=C(C(=O)N1CCN(C(=O)C2CCCCC2)CC1)c1c[nH]c2c(-n3ccnn3)ncc(F)c12` [Compound 2017] gave an EC50 of 0.11 nM. Moreover, under setting [1], the EC50 is less than 500 nM. Consider `CC1CCCC(C(=O)N2CCN(C(=O)C(=O)c3c[nH]c4c(-n5ccnn5)ncc(F)c34)CC2)C1` (stereo not drawn) [Compound 2001], for which the EC50 under setting [1] is less than 500 nM. Same read-out and setting: then `COCCOCC(=O)N1CCN(C(=O)C(=O)c2c[nH]c3c(-n4ccnn4)ncc(F)c23)CC1` [Compound 2047], with greater than 500 nM. Consider `COc1cnc(-n2ccnn2)c2[nH]cc(C(=O)C(=O)N3CCN(C(=O)C4CCCCCC4)CC3)c12` [Compound 1004, 1-(4-(cycloheptanecarbonyl)piperazin-1-yl)-2-(4-methoxy-7-(1H-1,2,3-triazol-1-yl)-1H-pyrrolo[2,3-c]pyridin-3-yl)ethane-1,2-dione], for which the EC50 amounted to 0.14 nM. Also, under setting [1], the EC50 was less than 500 nM. As to `CC1CCCCC1C(=O)N1CCN(C(=O)C(=O)c2c[nH]c3c(-n4ccnn4)ncc(F)c23)CC1` (stereo not drawn) [Compound 2003], the EC50 under setting [1] is less than 500 nM. Still for that read-out and setting: then `CN1CCC(C(=O)N2CCN(C(=O)C(=O)c3c[nH]c4c(-n5ccnn5)ncc(F)c34)CC2)CC1` [Compound 2020], with greater than 500 nM; and `C[C@]1(C(=O)N2CCN(C(=O)C(=O)c3c[nH]c4c(-n5ccnn5)ncc(F)c34)CC2)CCCN1` [Compound 2007], with greater than 500 nM.

Regarding `COCCOCC(=O)N1CCN(C(=O)C(=O)c2c[nH]c3c(-n4cnc(C)n4)ncc(OC)c23)CC1` [Compound 2051], under setting [1], the concentration giving a half-maximal response (EC50) was greater than 500 nM. The same measure, in the same setting: with `CN1CCC[C@H]1C(=O)N1CCN(C(=O)C(=O)c2c[nH]c3c(-n4ccnn4)ncc(F)c23)CC1` [Compound 2030] the figure was greater than 500 nM; with `COCC(=O)N1CCN(C(=O)C(=O)c2c[nH]c3c(-n4ccnn4)ncc(F)c23)CC1` [Compound 2044], less than 500 nM. The same measure, in the same setting: then `COc1cnc(-n2cnc(C)n2)c2[nH]cc(C(=O)C(=O)N3CCN(C(=O)CCC4CCCC4)CC3)c12` [Compound 2041], with less than 500 nM; and `O=C(C(=O)N1CCN(C(=O)CCC2CCCC2)CC1)c1c[nH]c2c(-n3ccnn3)ncc(F)c12` [Compound 2043], with less than 500 nM. As for `CCC(=O)N1CCN(C(=O)C(=O)c2c[nH]c3c(-n4ccnn4)ncc(F)c23)CC1` [Compound 2046], the midpoint of the response, the EC50, lay at 6.88 nM. Also, the EC50 under setting [1] is less than 500 nM. For the compound `O=C(C(=O)N1CCN(C(=O)C2CCOC2)CC1)c1c[nH]c2c(-n3ccnn3)ncc(F)c12` (stereo not drawn) [Compound 2015], the EC50 under setting [1] was less than 500 nM.

Consider `CC(C)(C)OC(=O)N1CCCC(C(=O)N2CCN(C(=O)C(=O)c3c[nH]c4c(-n5ccnn5)ncc(F)c34)CC2)C1` (stereo not drawn) [Compound 2034], for which the EC50 under setting [1] is greater than 500 nM. The same measure, in the same setting: then `O=C(C(=O)N1CCN(C(=O)C2CC2)CC1)c1c[nH]c2c(-n3ccnn3)ncc(F)c12` [Compound 2038], with less than 500 nM; and `CN(C)[C@H](C(=O)N1CCN(C(=O)C(=O)c2c[nH]c3c(-n4ccnn4)ncc(F)c23)CC1)c1ccccc1` [Compound 2037], with greater than 500 nM.
